Results on one compound are retold here after paper PMC7394005, “Assessing the Selectivity of FXR, LXRs, CAR, and RORγ Pharmaceutical Ligands With Reporter Cell Lines” (Frontiers in Pharmacology, 2020).

One may read the EC50 as the midpoint of the concentration-response curve. Broadly, the IC50 is the concentration at which inhibition is half-maximal.

What all share (format): cell-based
Series [1] concerns the target T1, human LXRα (Homo sapiens, UniProt Q13133).
T1 construct: LXRα (A187-E447); expressed in transfected cells; host or cells: HG5LN (HeLa cells carrying the (GAL4RE)5-βGlob-Luc-SVNeo reporter)
T1 sequence (Q13133 187-447): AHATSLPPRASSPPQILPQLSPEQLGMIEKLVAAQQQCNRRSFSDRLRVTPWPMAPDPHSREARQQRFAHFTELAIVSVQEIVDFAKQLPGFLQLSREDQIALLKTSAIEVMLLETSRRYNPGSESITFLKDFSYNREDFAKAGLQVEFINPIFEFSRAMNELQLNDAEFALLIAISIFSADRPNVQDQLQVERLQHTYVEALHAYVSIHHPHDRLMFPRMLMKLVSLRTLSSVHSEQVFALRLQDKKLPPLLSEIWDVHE
In words: HG5LN GAL4-LXRα reporter cell line, agonist mode. The note with it: HG5LN GAL4-LXRα cells, tested alone; NE = No effect; read-out: LXRα EC50. From the text: (§1) To construct GAL4-NR chimeras, individual LBDs of human FXR (R193-Q486), LXRα (A187-E447), LXRβ (G199-E461), CAR (M76-S348), and RORγ (S97-K518) were amplified by PCR with primers containing XhoI and SacI restriction sites (FXR), XhoI and BamHI (LXRs, CAR, RORγ) and inserted in pSG5-GAL4(DBD)-puromycin plasmid. To construct GAL4-CAR (+ APYLT) (M76-S353), the five amino acids APYLT were inserted by overlap extension PCR between amino acids P270 and D271 of CAR.
(§2) To characterize the specificity of chemicals for human FXR, LXRα, LXRβ, CAR and RORγ, we established in a similar manner HG5LN FXR, LXRα, LXRβ, CAR WT, CAR (APYLT) and RORγ reporter cell lines. […] These cells were stably transfected by pSG5-GAL4 (DBD)-NRs (LBD)-puromycin plasmid and selected in presence of 0.5 µg/ml puromycin. […] From each HG5LN NR cells, 5 to 10 clones were chosen for their ligand inducibility of luciferase expression. […] The most inducible clones were expanded and rechecked for inducibility and aliquots were frozen at different passages. One clone per receptor was maintained in culture and used for ligand screening. HG5LN cells were cultured in Dulbecco’s modified Eagle’s medium (DMEM): Nutrient Mixture F-12 (DMEM/F-12) containing phenol red and 1 g/l glucose and supplemented with 5% fetal bovine serum, 100 units/ml of penicillin, 100 µg/ml of streptomycin and 1 mg/ml geneticin, in 5% CO2 humidified atmosphere at 37°C. Stably transfected cell lines derived from HG5LN cells were cultured in the same culture medium supplemented with 0.5 µg/ml puromycin.
(§3) Individual reporter cell lines were seeded at a density of 40,000 cells per well in 96-well white opaque tissue culture plates (Greiner CellStar) in Dulbecco’s Modified Eagle Medium: Nutrient Mixture F-12 (DMEM/F-12) without phenol red and 1 g/l glucose and supplemented with 5% stripped fetal bovine serum, 100 units/ml of penicillin, 100 µg/ml of streptomycin (test medium). Chemicals to be tested were added 24h later, and cells were incubated at 37°C for 16h. Experiments were performed in quadruplicates. At the end of the incubation period, culture medium was replaced with test medium containing 0.3 mM luciferin solution. Luciferase activity was measured for 2s in intact living cells after 10 min stabilization using a Micro Beta Wallac luminometer (PerkinElmer). EC50 values were calculated using GraphPad Prism (GraphPad Software Inc).
(§4) Chemicals tested for agonism on FXR, LXRs, CAR (+ APYLT), PXR, and antagonism on CAR and RORγ were tested alone, without addition of any other ligand.
(§5) In the transactivation assay, each compound was tested at various concentrations in three independent experiments at least. For each experiment, tests were performed in quadruplicates for each concentration, and data are expressed by means values with standard deviations. Individual agonist dose–response curves, in the absence and presence of antagonist, were fitted using the sigmoid dose-response function of a graphics and statistics software program (GraphPad Prism, version 5.0). EC50 (effective concentration for half-maximal luciferase activity) and IC50 (half-maximal inhibitory concentration) values were calculated from equations used to fit the data in this graphic software. Transactivation data are presented as EC50 and IC50 values for each compound tested. To analyze significances, we compared individual compound treatments with controls using one-way analysis of variance (ANOVA) with the help of GraphPad Prism software.

In series [2] the target is T2, human LXRβ (Homo sapiens, UniProt P55055).
T2 construct: LXRβ (G199-E461); expressed in transfected cells; host or cells: HG5LN (HeLa cells carrying the (GAL4RE)5-βGlob-Luc-SVNeo reporter)
T2 sequence (P55055 198-460 limits assumed): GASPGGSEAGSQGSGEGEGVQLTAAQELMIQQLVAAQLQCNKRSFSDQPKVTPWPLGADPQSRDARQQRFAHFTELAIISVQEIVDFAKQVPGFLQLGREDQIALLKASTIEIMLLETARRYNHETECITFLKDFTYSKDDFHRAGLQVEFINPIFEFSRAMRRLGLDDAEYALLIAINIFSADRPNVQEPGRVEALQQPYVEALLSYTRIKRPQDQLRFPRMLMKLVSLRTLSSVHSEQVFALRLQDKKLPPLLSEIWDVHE
Kind of series: HG5LN GAL4-LXRβ reporter cell line, agonist mode. To be noted: HG5LN GAL4-LXRβ cells, tested alone; NE = No effect; read-out: LXRβ EC50.
Description: as §1, §2, §3, §4, §5

Series [3] addresses T3, human RORγ (Homo sapiens, UniProt P51449).
T3 construct: RORγ (S97-K518); expressed in transfected cells; host or cells: HG5LN (HeLa cells carrying the (GAL4RE)5-βGlob-Luc-SVNeo reporter)
T3 sequence (P51449 97-518): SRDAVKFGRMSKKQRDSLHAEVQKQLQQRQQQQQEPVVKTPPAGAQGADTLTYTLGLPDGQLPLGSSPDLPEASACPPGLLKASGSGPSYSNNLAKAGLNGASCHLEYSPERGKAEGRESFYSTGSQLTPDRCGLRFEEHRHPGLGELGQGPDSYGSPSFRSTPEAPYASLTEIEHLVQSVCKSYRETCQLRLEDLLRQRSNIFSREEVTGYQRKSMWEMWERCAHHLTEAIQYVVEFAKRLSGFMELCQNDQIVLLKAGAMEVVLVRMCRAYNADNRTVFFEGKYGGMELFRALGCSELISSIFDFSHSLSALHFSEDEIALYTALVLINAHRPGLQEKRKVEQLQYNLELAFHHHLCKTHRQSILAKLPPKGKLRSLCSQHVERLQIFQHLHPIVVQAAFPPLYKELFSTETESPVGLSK
Kind of series: HG5LN GAL4-RORγ reporter cell line, agonist mode in presence of SR2211. The note with it: read-out: RORγ (SR2211 1 mM) EC50; in presence of SR2211 1 mM; NE = No effect.
Description: as §1, §2, §3, §4, §5

The next series addresses T4, human PXR (Homo sapiens, UniProt O75469).
T4 construct: The GAL4-NR chimeric cell lines provide uniform cellular model differing just in receptor LBDs; expressed in transfected cells; host or cells: HG5LN PXR (HeLa-derived; described in Delfosse et al., 2015)
T4 sequence (O75469 146-433 limits assumed): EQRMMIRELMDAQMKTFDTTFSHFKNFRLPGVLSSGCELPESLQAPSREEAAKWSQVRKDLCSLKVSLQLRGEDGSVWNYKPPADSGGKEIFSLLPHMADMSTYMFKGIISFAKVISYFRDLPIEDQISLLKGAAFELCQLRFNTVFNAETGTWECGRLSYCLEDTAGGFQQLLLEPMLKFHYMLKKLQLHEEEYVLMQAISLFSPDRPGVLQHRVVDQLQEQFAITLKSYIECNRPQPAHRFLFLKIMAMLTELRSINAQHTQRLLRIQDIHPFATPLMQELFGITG
Kind of series: HG5LN PXR reporter cell line, agonist mode. To be noted: NE = No effect. The method, then: as §2, §3, §4, §5

Series [4] concerns the target T1, human LXRα. In words: HG5LN GAL4-LXRα reporter cell line, antagonist mode in presence of T0901317. To be noted: read-out: LXRα (T0901317 20 nM) IC50; in presence of T0901317 20 nM; NE = No effect.
Description: as §1, §2, §3, §4, §5

Series [5] concerns the target T2, human LXRβ. Kind of series: HG5LN GAL4-LXRβ reporter cell line, antagonist mode in presence of T0901317. The note with it: read-out: LXRβ (T0901317 100 nM) IC50; in presence of T0901317 100 nM; NE = No effect.
Description: as §1, §2, §3, §4, §5

The target of series [6] is T3, human RORγ. In words: HG5LN GAL4-RORγ reporter cell line, inhibition of constitutive activity. To be noted: inhibition of constitutive activity, tested alone; NE = No effect.
Description: as §1, §2, §3, §4, §5

With `CCC(C)N(C)C(=O)c1cc2ccccc2c(-c2ccccc2Cl)n1` (centres unmarked) [PK11195], the EC50 at human LXRα [1] was more than 10 µM; on human LXRβ [2], more than 10 µM; on human RORγ [3], more than 10 µM; on human PXR (HG5LN PXR cells, tested alone, read-out: PXR EC50), 0.726 ± 0.056 µM. Besides, at human PXR (maximal luciferase activity at 10^-5 M (10^-6 M *, 3 10^-6 M **), 100% = 3 µM SR12813, DMSO 19 ± 2), the “PXR % max act” value worked out at 80%. Further, the IC50 on human LXRα [4], on human LXRβ [5] and at human RORγ [6] was more than 10 µM throughout.
